Earlier results on two compounds are cited in patent US11759504B2, “PTH compounds with low peak-to-trough ratios” (Ascendis Pharma Bone Diseases A/S, priority 2016, dated 2023).

Assay in series [1]: not given
The source holds these as a separate data set.

Like-named read-outs stand apart in the source and are kept apart here.

Take `CC[C@H](C)[C@H](NC(=O)[C@H](CCC(=O)O)NC(=O)[C@H](CO)NC(=O)[C@@H](NC(=O)[C@@H](N)CO)C(C)C)C(=O)N[C@@H](CCC(N)=O)C(=O)N[C@@H](CC(C)C)C(=O)N[C@@H](CCSC)C(=O)N[C@@H](Cc1cnc[nH]1)C(=O)N[C@@H](CC(N)=O)C(=O)N[C@@H](CC(C)C)C(=O)NCC(=O)N[C@@H](CCCCN)C(=O)N[C@@H](Cc1cnc[nH]1)C(=O)N[C@@H](CC(C)C)C(=O)N[C@@H](CC(N)=O)C(=O)N[C@@H](CO)C(=O)N[C@@H](CCSC)C(=O)N[C@@H](CCC(=O)O)C(=O)N[C@@H](CCCN=C(N)N)C(=O)N[C@H](C(=O)N[C@@H](CCC(=O)O)C(=O)N[C@@H](Cc1c[nH]c2ccccc12)C(=O)N[C@@H](CC(C)C)C(=O)N[C@@H](CCCN=C(N)N)C(=O)N[C@@H](CCCCN)C(=O)N[C@@H](CCCCN)C(=O)N[C@@H](CC(C)C)C(=O)N[C@@H](CCC(N)=O)C(=O)N[C@@H](CC(=O)O)C(=O)N[C@H](C(=O)N[C@@H](Cc1cnc[nH]1)C(=O)N[C@@H](CC(N)=O)C(=O)N[C@@H](Cc1ccccc1)C(=O)O)C(C)C)C(C)C` [Forteo]: the osteosarcoma rate entry (rats, daily injections) is “dose dependent increase in osteosarcoma rate”.
“Natpara: PTH(1-84), approved 2015 for once-daily subcutaneous injection as adjunct to vitamin D and calcium in hypoparathyroidism”: the “patients who developed hypercalcemia at one or more measurements during a 24-hour period” value in series [1] (human, in vivo) is listed as 71%. The urinary calcium excretion entry in series [1] (over the 24-hour period after injection) is listed as “did not change”. Besides, in series [1] (pivotal trial, once-daily sc), the “treated participants who achieved normal blood calcium levels on reduced doses of calcium supplements and active forms of vitamin D” value is 42%. Besides, where the note is “rat, in vivo”, the osteosarcoma rate entry is listed as “dose dependent increase in osteosarcoma rate”.
